Laboratory results: publication PMC5216351, “Obtaining control of cell surface functionalizations via Pre-targeting and Supramolecular host guest interactions” (Scientific Reports, 2017)
pKd: −log10 of the molar value. Positions of bridges follow the written chain, without caps; N, C: chain ends. Non-standard residues stand in square brackets, D forms with d. Residues, ends and D or L forms follow the SMILES beside them. *: point of attachment. Adamantane1carbonyl = O=C(C12CC3CC(CC(C3)C1)C2)*; 2Nal = N[C@@H](Cc1ccc2ccccc2c1)C(=O)O; Cit = NC(=O)NCCC[C@H](N)C(=O)O

How the values were obtained:
MDAMB231 X4 cells = assay: Host-guest dependent cell functionalization, confocal microscopy and flow cytometry; assay type: cell-based, human; conditions: peptide 10 μM, polymer 10 μM β-CD / 1 μM polymer, 1 h each at 0 °C; Fig. 3a
Experimental: The receptor-mediated functionalization of cells was examined by confocal microscopy and flow cytometry (see also ‘Ac-TZ14011-Ad induced cell functionalization analyzed by flow cytometry’). For Confocal microscopy MDAMB231 × 4 cells (80,000 per well) were incubated with either Ac-TZ14011 (10 μM), Ac-TZ14011-Ad (10 μM), or none, for 1 h at 0 °C in 1 mL DMEM. […] Thereafter, the cells were washed twice with PBS and confocal images were acquired. All experiments were performed in 6-fold and for each condition per experiment at least 10 cells were included in the study. The Cy5 signal present on the cell in each sample was quantified to analyze differences between the amount of binding of the polymers to the cells when either, no peptide, Ac-TZ14011, or Ac-TZ14011-Ad was present. For normalization all results were divided by the average fluorescence value obtained when just the polymer was added. The significance of the obtained differences was determined by student T-test (two tailed, unpaired).
Besides examining the receptor-mediated functionalization of cells by confocal microscopy (see ‘Ac-TZ14011-Ad induced cell functionalization analyzed by confocal microscopy’) the functionalization was also examined by flow cytometry to quantify the rate of functionalization. […] For data normalization, all results were divided by the average fluorescence value obtained when only the polymer was added. […]

[1] = target: T1, chemokine receptor 4 (CXCR4) (Homo sapiens, UniProt P61073); assay: Flow cytometry competition binding on viable CXCR4 expressing cells (receptor affinity); conditions: competition with Ac-TZ14011-MSAP (250 nM), 0.5 – 15,000 nM in PBS, MDAMB231 X4 cells, 1 h on ice, n = 2, One site-Fit Ki
T1 construct: expressed in transfected cells; host or cells: MDAMB231 X4 (human MDA-MB-231 breast cancer cells, provided by Dr. Gary Luker)
Experimental: Human MDAMB231 cells, transfected with human CXCR4 conjugated GFP (MDAMB231 X4), were kindly provided by Dr. Gary Luker (Center for Molecular Imaging, University of Michigan, USA).5 Native MDAMB231 cells with basal CXCR4 expression were used as control.6 Cells we re maintained in Dulbecco’s minimum essential medium (DMEM) enriched with 10% fetal bovine serum and 5 mL Penicillin/Streptomycin (1,000 units/mL Penicillin; 1,000 μg/mL Streptomycin) (all Life Technologies Inc.). Cell lines were cultured and maintained under standard conditions […]
One day prior the experiment, cells were trypsinized, seeded onto culture dishes with glass insert (ø35mm glass bottom dishes No. 15, poly-d-lysine coated, γ-Irradiated, MatTek corporation) and incubated overnight in 2 mL DMEM. […] The intrinsic GFP signal in the MDAMB231 X4 cells was measured with excitation at 488 nm and emission was collected at 500-525 nm.
Cy3 fluorescence was measured with excitation at 514 nm, emission was collected at 550-5 70 nm. Cy5 fluorescence was measured with excitation at 633 nm, emission was collected at 650-700 nm. Any Hoechst 33342 fluorescence was measured using 405 nm excitation and emission was collected at 420-470 nm. Images and signal quantifications were obtained using Leica Application Suite software, by applying the polygon function and calculating the average gray value/m2 for each cell. […]

T1 sequence (P61073 whole entry): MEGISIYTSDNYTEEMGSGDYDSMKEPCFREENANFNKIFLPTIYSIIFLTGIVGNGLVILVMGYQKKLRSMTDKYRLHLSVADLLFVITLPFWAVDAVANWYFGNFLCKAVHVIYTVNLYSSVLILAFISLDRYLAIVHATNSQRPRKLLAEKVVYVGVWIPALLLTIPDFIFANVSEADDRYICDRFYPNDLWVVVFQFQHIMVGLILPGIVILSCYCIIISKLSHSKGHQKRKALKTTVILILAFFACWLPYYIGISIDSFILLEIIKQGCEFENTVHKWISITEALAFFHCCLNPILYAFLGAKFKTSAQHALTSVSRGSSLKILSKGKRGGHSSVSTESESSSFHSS

SMILES: CC(=O)N[C@@H](CCCNC(=N)N)C(=O)N[C@@H](CCCNC(=N)N)C(=O)N[C@@H](Cc1ccc2ccccc2c1)C(=O)N[C@H]1CSSC[C@@H](C(=O)N[C@@H](CCCNC(=N)N)C(N)=O)NC(=O)[C@H](CCCNC(N)=O)NC(=O)[C@H](CCCNC(=N)N)NC(=O)[C@H](Cc2ccc(O)cc2)NC(=O)[C@@H]2CCCN2C(=O)[C@@H](CCCCNC(=O)C23CC4CC(CC(C4)C2)C3)NC(=O)[C@H](CCCNC(=N)N)NC(=O)[C@H](CCCNC(N)=O)NC(=O)[C@H](Cc2ccc(O)cc2)NC1=O [Ac-TZ14011-Ad] (Ac-RR[2Nal]CY[Cit]R[dK](Adamantane1carbonyl)PYR[Cit]CR-NH2; disulfide 4-13)
- effect of pre-targeting peptide on Cy5_0.5CD10PIBMA39 binding (MDAMB231 X4 cells): further enhances this effect
- pKd [1]: 7.25
